Laboratory results as given in the supplement of paper PMC10307832.

Each cell line was assayed with COC1=C(C=C(C=C1)C2=CC3=NC=CN3C(=N2)NC4=C(C=CC=N4)C(=O)N)OC [BAY61-3606] + CS(=O)(=O)N1CCN(Cc2cc3nc(-c4cccc5[nH]ncc45)nc(N4CCOCC4)c3s2)CC1 [Pictilisib] (partner 1 µM) (assay: relative viability (nuclei count vs DMSO), 5 days (fraction); higher = more cells survive). Conditions: first compound 0.02 µM.
In short: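 A single step with final 0.05% Triton X-100, 1% formaldehyde and 1 ug/ml Hoechst fixed the cells and stained nuclei 5 days after treatment. Lung cancer cell lines in 1536-well plates had been treated by pin tool the day after seeding with one drug alone or a fixed anchor-drug dose plus five library-drug doses (not always all listed) in √10 steps, and nuclei were counted on 4× images. Relative viability is the ratio of nuclei in treated wells to nuclei in vehicle wells, taken as the median of duplicate plates.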

First: EMC-BAC-2
Second: NCI-H2087
The relative viability of the first is lower: 0.602 for the first, 1.05 for the second.

First: Calu-6
Second: HCC-44
The relative viability of the first is higher: 0.963 for the first, 0.581 for the second.

Compared with NCI-H1703, NCI-H727 is higher in relative viability: 0.27 for the first, 0.443 for the second.

Going from LK-2 to NCI-H2126, the relative viability falls from 0.594 to 0.543.

Compared with NCI-H1793, H3255 is higher in relative viability: 0.434 for the first, 0.516 for the second.

Going from COR-L23 to COR-L 105, the relative viability falls from 0.933 to 0.505.

First: LC-2-ad
Second: LU99A
The relative viability of the first is higher: 0.405 for the first, 0.343 for the second.

Going from NCI-H358 to NCI-H322M, the relative viability rises from 0.385 to 0.506.

Going from IA-LM to HCC-78, the relative viability falls from 0.351 to 0.297.

Compared with A549, LXF-289 is higher in relative viability: 0.585 for the first, 0.846 for the second.

Compared with BEN, HARA is lower in relative viability: 0.71 for the first, 0.444 for the second.

Compared with HCC-827, NCI-H520 is lower in relative viability: 1.03 for the first, 0.316 for the second.

Going from LOU-NH91 to NCI-H2023, the relative viability falls from 0.566 to 0.275.

Going from A-427 to NCI-H647, the relative viability falls from 0.846 to 0.622.

First: PC-3 [JPC-3]
Second: NCI-H1755
The relative viability of the first is higher: 0.784 for the first, 0.532 for the second.

Same assay, conditions: first compound 0.06325 µM

First: NCI-H2228
Second: EMC-BAC-2
The relative viability of the first is lower: 0.34 for the first, 0.522 for the second.

Going from NCI-H2087 to Calu-6, the relative viability rises from 0.937 to 1.01.

First: HCC-44
Second: NCI-H1703
The relative viability of the first is higher: 0.651 for the first, 0.233 for the second.

Compared with NCI-H727, LK-2 is higher in relative viability: 0.4 for the first, 0.423 for the second.

Going from NCI-H2126 to NCI-H1793, the relative viability falls from 0.503 to 0.381.

Compared with H3255, COR-L23 is higher in relative viability: 0.432 for the first, 0.871 for the second.

Compared with COR-L 105, LC-2-ad is higher in relative viability: 0.385 for the first, 0.429 for the second.

First: LU99A
Second: NCI-H358
The relative viability of the first is higher: 0.352 for the first, 0.327 for the second.

First: NCI-H322M
Second: IA-LM
The relative viability of the first is higher: 0.529 for the first, 0.393 for the second.

Compared with HCC-78, A549 is higher in relative viability: 0.226 for the first, 0.566 for the second.

First: LXF-289
Second: BEN
The relative viability of the first is higher: 0.83 for the first, 0.476 for the second.

Going from HARA to HCC-827, the relative viability rises from 0.371 to 0.893.

Compared with NCI-H520, LOU-NH91 is higher in relative viability: 0.32 for the first, 0.544 for the second.

Compared with NCI-H2023, A-427 is higher in relative viability: 0.264 for the first, 0.709 for the second.

First: NCI-H647
Second: PC-3 [JPC-3]
The relative viability of the first is lower: 0.297 for the first, 0.695 for the second.

In the case of NCI-H1755, the relative viability is reported as 0.35.

Same assay, conditions: first compound 0.2 µM

Compared with NCI-H2228, EMC-BAC-2 is higher in relative viability: 0.421 for the first, 0.47 for the second.

First: NCI-H2087
Second: Calu-6
The relative viability of the first is lower: 0.865 for the first, 0.957 for the second.

First: HCC-44
Second: NCI-H1703
The relative viability of the first is higher: 0.634 for the first, 0.241 for the second.

First: NCI-H727
Second: LK-2
The relative viability of the first is lower: 0.392 for the first, 0.614 for the second.

First: NCI-H2126
Second: NCI-H1793
The relative viability of the first is higher: 0.492 for the first, 0.303 for the second.

Going from H3255 to COR-L23, the relative viability rises from 0.463 to 0.866.

Going from COR-L 105 to LC-2-ad, the relative viability falls from 0.434 to 0.29.

Compared with LU99A, NCI-H358 is lower in relative viability: 0.34 for the first, 0.333 for the second.

First: NCI-H322M
Second: IA-LM
The relative viability of the first is higher: 0.516 for the first, 0.442 for the second.

First: HCC-78
Second: A549
The relative viability of the first is lower: 0.251 for the first, 0.532 for the second.

Compared with LXF-289, BEN is lower in relative viability: 0.782 for the first, 0.6 for the second.

Going from HARA to HCC-827, the relative viability rises from 0.372 to 1.15.

Going from NCI-H520 to LOU-NH91, the relative viability rises from 0.329 to 0.568.

Going from NCI-H2023 to A-427, the relative viability rises from 0.277 to 0.744.

First: NCI-H647
Second: PC-3 [JPC-3]
The relative viability of the first is lower: 0.435 for the first, 0.695 for the second.

With NCI-H1755 the relative viability was 0.463.

Same assay, conditions: first compound 0.6325 µM

First: NCI-H2228
Second: EMC-BAC-2
The relative viability of the first is lower: 0.505 for the first, 0.632 for the second.

Compared with NCI-H2087, Calu-6 is higher in relative viability: 0.878 for the first, 0.932 for the second.

First: HCC-44
Second: NCI-H1703
The relative viability of the first is higher: 0.684 for the first, 0.256 for the second.

Compared with NCI-H727, LK-2 is higher in relative viability: 0.386 for the first, 0.758 for the second.

First: NCI-H2126
Second: NCI-H1793
The relative viability of the first is higher: 0.51 for the first, 0.352 for the second.

First: H3255
Second: COR-L23
The relative viability of the first is lower: 0.467 for the first, 0.871 for the second.

First: COR-L 105
Second: LC-2-ad
The relative viability of the first is lower: 0.373 for the first, 0.468 for the second.

Going from LU99A to NCI-H358, the relative viability falls from 0.329 to 0.321.

First: NCI-H322M
Second: IA-LM
The relative viability of the first is lower: 0.523 for the first, 0.54 for the second.

Going from HCC-78 to A549, the relative viability rises from 0.158 to 0.572.

Going from LXF-289 to BEN, the relative viability falls from 0.805 to 0.655.

Compared with HARA, HCC-827 is higher in relative viability: 0.39 for the first, 1.09 for the second.

First: NCI-H520
Second: LOU-NH91
The relative viability of the first is lower: 0.261 for the first, 0.505 for the second.

Going from NCI-H2023 to A-427, the relative viability rises from 0.251 to 0.751.

First: NCI-H647
Second: PC-3 [JPC-3]
The relative viability of the first is lower: 0.404 for the first, 0.678 for the second.

NCI-H1755 was tested, and the relative viability was 0.415.

Same assay, conditions: first compound 2 µM

Going from NCI-H2228 to EMC-BAC-2, the relative viability rises from 0.341 to 0.527.

Going from NCI-H2087 to Calu-6, the relative viability falls from 0.666 to 0.659.

Going from HCC-44 to NCI-H1703, the relative viability falls from 0.561 to 0.214.

First: NCI-H727
Second: LK-2
The relative viability of the first is lower: 0.267 for the first, 0.532 for the second.

First: NCI-H2126
Second: NCI-H1793
The relative viability of the first is higher: 0.447 for the first, 0.434 for the second.

Compared with H3255, COR-L23 is higher in relative viability: 0.447 for the first, 0.449 for the second.

Going from COR-L 105 to LC-2-ad, the relative viability falls from 0.346 to 0.235.

Going from LU99A to NCI-H358, the relative viability falls from 0.278 to 0.167.

First: NCI-H322M
Second: IA-LM
The relative viability of the first is lower: 0.482 for the first, 0.496 for the second.

First: HCC-78
Second: A549
The relative viability of the first is lower: 0.167 for the first, 0.436 for the second.

Going from LXF-289 to BEN, the relative viability falls from 0.84 to 0.599.

First: HARA
Second: HCC-827
The relative viability of the first is lower: 0.312 for the first, 0.915 for the second.

First: NCI-H520
Second: LOU-NH91
The relative viability of the first is lower: 0.317 for the first, 0.472 for the second.

First: NCI-H2023
Second: A-427
The relative viability of the first is lower: 0.206 for the first, 0.646 for the second.

First: NCI-H647
Second: PC-3 [JPC-3]
The relative viability of the first is lower: 0.365 for the first, 0.561 for the second.

NCI-H1755 was tested, and the relative viability was 0.385.
